Experimental data published in ChEMBL document CHEMBL4813950, “Comparing the efficacy and selectivity of Ck2 inhibitors. A phosphoproteomics approach” (Eur J Med Chem, 2021).
Active and inactive are the calls of the source. The rule behind the calls is not given here.

Key:
[1] = molecular target: Dual E2 ubiquitin-conjugating enzyme/E3 ubiquitin-protein ligase BIRC6 (Mus musculus) (UniProt O88738); test: Inhibition of Birc6 in mouse C2C12 cells assessed as reduction in phospho-sites occupancy at 4 uM after 5 hrs by SILAC based LC-MS/MS analysis relative to control; assay type: cell-based
[2] = molecular target: WASH complex subunit 2 (Mus musculus) (UniProt Q6PGL7); test: Inhibition of Washc2 in mouse C2C12 cells assessed as reduction in phospho-sites occupancy at 4 uM after 5 hrs by SILAC based LC-MS/MS analysis relative to control; assay type: cell-based
[3] = molecular target: Eukaryotic translation initiation factor 2 subunit 2 (Mus musculus) (UniProt Q99L45); test: Inhibition of eukaryotic translation initiation factor 2 subunit 2 in mouse C2C12 cells assessed as reduction in phospho-sites occupancy at 4 uM after 5 hrs by SILAC based LC-MS/MS analysis relative to control; assay type: cell-based
[4] = molecular target: Survival motor neuron protein (Mus musculus) (UniProt P97801); test: Inhibition of survival motor neuron protein in mouse C2C12 cells assessed as reduction in phospho-sites occupancy at 4 uM after 5 hrs by SILAC based LC-MS/MS analysis relative to control; assay type: cell-based
[5] = molecular target: La-related protein 1 (Mus musculus) (UniProt Q6ZQ58); test: Inhibition of Larp1 in mouse C2C12 cells assessed as reduction in phospho-sites occupancy at 4 uM after 5 hrs by SILAC based LC-MS/MS analysis relative to control; assay type: cell-based
[6] = molecular target: DNA polymerase delta subunit 3 (Mus musculus) (UniProt Q9EQ28); test: Inhibition of Pold3 in mouse C2C12 cells assessed as reduction in phospho-sites occupancy at 4 uM after 5 hrs by SILAC based LC-MS/MS analysis relative to control; assay type: cell-based
[7] = molecular target: Tight junction protein 2 (Mus musculus) (UniProt Q9Z0U1); test: Inhibition of Tjp2 in mouse C2C12 cells assessed as reduction in phospho-sites occupancy at 4 uM after 5 hrs by SILAC based LC-MS/MS analysis relative to control; assay type: cell-based
[8] = molecular target: Autophagy-related protein 9A (Mus musculus) (UniProt Q68FE2); test: Inhibition of Atg9a in mouse C2C12 cells assessed as reduction in phospho-sites occupancy at 4 uM after 5 hrs by SILAC based LC-MS/MS analysis relative to control; assay type: cell-based
[9] = molecular target: Bcl-2-associated transcription factor 1 (Mus musculus) (UniProt Q8K019); test: Inhibition of Bcl-2-associated transcription factor 1 in mouse C2C12 cells assessed as reduction in phospho-sites occupancy at 4 uM after 5 hrs by SILAC based LC-MS/MS analysis relative to control; assay type: cell-based
[10] = molecular target: T1, Casein kinase 2 (Mus musculus) (UniProt Q60737+P67871+O54833+Q8CH19); test: Inhibition of CK2 in mouse C2C12 cells assessed as reduction in CK2 substrates phosphorylation at 1 to 4 uM by Western blot analysis; assay type: cell-based; conditions: dose 1-4 µM
[11] = molecular target: Lamina-associated polypeptide 2, isoforms beta/delta/epsilon/gamma (Mus musculus) (UniProt Q61029); test: Inhibition of LAP2B epsilon in mouse C2C12 cells assessed as reduction in phospho-sites occupancy at 4 uM after 5 hrs by SILAC based LC-MS/MS analysis relative to control; assay type: cell-based
Striatin (Mus musculus) = Striatin (Mus musculus) (UniProt O55106); test: Inhibition of Stria-tin in mouse C2C12 cells assessed as reduction in phospho-sites occupancy at 4 uM after 5 hrs by SILAC based LC-MS/MS analysis relative to control; assay type: cell-based
[12] = molecular target: Cyclin-dependent kinase 4 (Mus musculus) (UniProt P30285); test: Inhibition of Cdk4 in mouse C2C12 cells assessed as reduction in phospho-sites occupancy at 4 uM after 5 hrs by SILAC based LC-MS/MS analysis relative to control; assay type: cell-based
[13] = molecular target: Host cell factor 1 (Mus musculus) (UniProt Q61191); test: Inhibition of host cell factor 1 in mouse C2C12 cells assessed as reduction in phospho-sites occupancy at 4 uM after 5 hrs by SILAC based LC-MS/MS analysis relative to control
[14] = molecular target: Sequestosome-1 (Mus musculus) (UniProt Q64337); test: Inhibition of Sequestosome-1 in mouse C2C12 cells assessed as reduction in phospho-sites occupancy at 4 uM after 5 hrs by SILAC based LC-MS/MS analysis relative to control; assay type: cell-based
[15] = molecular target: Desmoyokin (Mus musculus) (UniProt Q61484); test: Inhibition of AHNAK in mouse C2C12 cells assessed as reduction in phospho-sites occupancy at 4 uM after 5 hrs by SILAC based LC-MS/MS analysis relative to control; assay type: cell-based
[16] = molecular target: Pleckstrin homology-like domain family B member 1 (Mus musculus) (UniProt Q6PDH0); test: Inhibition of Phldb1 in mouse C2C12 cells assessed as reduction in phospho-sites occupancy at 4 uM after 5 hrs by SILAC based LC-MS/MS analysis relative to control; assay type: cell-based
[17] = molecular target: Nucleoprotein TPR (Mus musculus) (UniProt F6ZDS4); test: Inhibition of nucleoprotein TPR in mouse C2C12 cells assessed as reduction in phospho-sites occupancy at 4 uM after 5 hrs by SILAC based LC-MS/MS analysis relative to control; assay type: cell-based
[18] = molecular target: Rho GTPase-activating protein 35 (Mus musculus) (UniProt Q91YM2); test: Inhibition of Arhgap35 in mouse C2C12 cells assessed as reduction in phospho-sites occupancy at 4 uM after 5 hrs by SILAC based LC-MS/MS analysis relative to control; assay type: cell-based
[19] = molecular target: Importin subunit alpha-4 (Mus musculus) (UniProt O35344); test: Inhibition of Kpna3 in mouse C2C12 cells assessed as reduction in phospho-sites occupancy at 4 uM after 5 hrs by SILAC based LC-MS/MS analysis relative to control; assay type: cell-based
[20] = molecular target: Nucleolar RNA helicase 2 (Mus musculus) (UniProt Q9JIK5); test: Inhibition of Ddx21 in mouse C2C12 cells assessed as reduction in phospho-sites occupancy at 4 uM after 5 hrs by SILAC based LC-MS/MS analysis relative to control; assay type: cell-based
[21] = molecular target: T1, Casein kinase 2 (Mus musculus); test: Inhibition of CK2 in mouse C2C12 cells assessed as reduction in Akt phosphorylation at S129 residues at 1 to 4 uM by Western blot analysis; assay type: cell-based; conditions: dose 1-4 µM
[22] = molecular target: Dihydropyrimidinase-related protein 3 (Mus musculus) (UniProt Q62188); test: Inhibition of Dihydropyrimidinase-related protein 3 in mouse C2C12 cells assessed as reduction in phospho-sites occupancy at 4 uM after 5 hrs by SILAC based LC-MS/MS analysis relative to control; assay type: cell-based
[23] = molecular target: LIM domain and actin-binding protein 1 (Mus musculus) (UniProt Q9ERG0); test: Inhibition of Lima1 in mouse C2C12 cells assessed as reduction in phospho-sites occupancy at 4 uM after 5 hrs by SILAC based LC-MS/MS analysis relative to control; assay type: cell-based
[24] = molecular target: 1-phosphatidylinositol 4,5-bisphosphate phosphodiesterase delta-3 (Mus musculus) (UniProt Q8K2J0); test: Inhibition of Plcd3 in mouse C2C12 cells assessed as reduction in phospho-sites occupancy at 4 uM after 5 hrs by SILAC based LC-MS/MS analysis relative to control; assay type: cell-based

fold change (FC) [1]: 1.62
fold change (FC) [2]: 4.17
fold change (FC) [3]: 1.6
fold change (FC) [5]: 3.25
fold change (FC) [6]: 1.66
fold change (FC) [7]: 3.31
fold change (FC) [8]: 1.8
fold change (FC) [9]: 1.58
inhibition [10]: Active
fold change (FC) [11]: 3.86
fold change (FC) (Striatin (Mus musculus)): 2.25
fold change (FC) [12]: 3.97
fold change (FC) [13]: 1.56
fold change (FC) [14]: 2.35
fold change (FC) [15]: 3.22
fold change (FC) [16]: 3.3
fold change (FC) [17]: 1.51
fold change (FC) [18]: 2.58
fold change (FC) [19]: 3.44
fold change (FC) [20]: 1.66
inhibition [21]: Active
fold change (FC) [22]: 3.25
fold change (FC) [23]: 2.39
fold change (FC) [24]: 3.31
SMILES: COc1cc(/C=N/n2c(SC)nnc2-c2ccccc2)c(Br)cc1O
fold change (FC) [4]: 1.52
